Where a SMILES comes first, the peptide text is derived from it. The star is where a group is joined. X1 = CCCCCCCCCCCCCCNC(=O)OC[C@H](C*)OC(=O)NCCCCCCCCCCCCCC; Palmitoyl = CCCCCCCCCCCCCCCC(=O)*
Legend:
GMDCs = test: Cytokine production by GMDCs; type: cell-based, mice; conditions: 200 nM, 24 h, ELISA; SUP3 versus Pam3
Experimental: Splenic DCs (5 × 10^5 cells/mL) were stimulated by Pam3 (200 nM), SUP3 (200 nM), or CpG ODN 1668 (20 nM; Adipogen IAX-200-001) in the GM-CSF (20 ng/mL) supplemented medium for indicated periods. Cell culture supernatants were harvested at indicated time points and stored at −40°C. RAW 264.7 cells and GMDCs were stimulated by lipopolysaccharide (LPS) (20 ng/mL; Adipogen IAX-100-013), Pam3, or SUP3 (both at 200 nM) for 24 h. For in vivo administration, Pam3 (2 nmol per mouse), SUP3 (2 nmol per mouse), or LPS (1 µg per mouse) were intravenously (i.v.) injected via tail veins. Serum was obtained through tail vein bleeding and centrifuged after coagulation and stored at −40°C. Cytokines (IL-6, eBioscience 88-7064; TNFα, eBioscience 88-7324; IL-12p40, BioLegend 431604), chemokine (MIP1α, R&D Systems DY450-05), and total IgM (eBioscience, 88-50470) were quantified by ELISA kits following the instructions of manufacturers.
Figure 1 Specificity and activity of novel TLR2 agonist SUP3. (A) Schematic chemical structure of SUP3. (B) Surface expression of TLR2 in wild-type (WT) and Tlr2^−/− RAW 264.7 cell lines. Gray shadows represented isotype control and black lines represented TLR2. […] The production of cytokines IL-6 and TNFα in culture supernatant was determined by ELISA. *p < 0.05, ****p < 0.0001, “n.s.” indicates statistically non-significant.

[1] = TD antigen (NP-KLH) immunization and antibody titer analysis; type: in vivo, mice; conditions: NP-KLH 5 µg per mouse i.p. with 2 nmol per mouse; serum ELISA weekly; vs Pam3
Experimental: Thymus-dependent antigen immunization and antibody titer analysis were performed as previously described ([43]). Briefly, wild-type (WT) mice were immunized by i.p. injection of TD antigen nitrophenyl-keyhole limpet hemocyanin (NP-KLH, 5 µg per mouse; Biosearch Technologies N-5060) alone, or mixed with SUP3 (2 nmol per mouse), Pam3 (2 nmol per mouse), or alum (3 µg per mouse; Thermo 77161). Serum was harvested every week, and nitrophenyl-specific IgM and IgG were determined by ELISA. IgM and total IgG were captured by nitrophenyl 30mer (Biosearch Technologies N-5050H), and high affinity IgG was captured by nitrophenyl 8mer (Biosearch Technologies N-5050L) pre-coated ELISA plates (Corning 9018).
Figure 5 SUP3 enhanced antigen presentation ability of CD11b^+ conventional dendritic cells (cDCs) and production of antibodies against thymus-dependent (TD) antigens. […] Three days after immunization, division of OT-II CD4^+ T cells from inguinal lymph nodes were analyzed by flow cytometry (B). Absolute numbers of proliferated OT-II CD4^+ T cells were calculated in (C). […] Cells were then thoroughly washed and cocultured with CFSE-stained OT-II CD4^+ T cells for 4 days and analyzed by flow cytometry. (D) The division of OT-II cells was measured by reduced level of CFSE-labeling. (E) Absolute numbers of proliferated T cells from (D) were calculated. […]

CCCCCCCCCCCCCCCC(=O)N[C@@H](CSC[C@@H](COC(=O)NCCCCCCCCCCCCCC)OC(=O)NCCCCCCCCCCCCCC)C(=O)NCC(=O)N[C@@H](CCCCN)C(=O)N[C@@H](CCCCN)C(=O)N[C@@H](CCCCN)C(=O)O [SUP3, (2S,5S,8S,14R,18R)-2,5,8-tris(4-aminobutyl)-4,7,10,13,21-pentaoxo-14-palmitamido-18-((tetradecylcarbamoyl)oxy)-20-oxa-16-thia-3,6,9,12,22-pentaazahexatriacontan-1-oic acid] (Palmitoyl-C(X1)GKKK-OH)
production of IL-6 and TNFα by GMDCs (GMDCs): comparable
titers of TD antigen-specific antibodies (IgM, total IgG, high affinity IgG) [1]: higher titers

From PMC5318439, “The Novel Toll-Like Receptor 2 Agonist SUP3 Enhances Antigen Presentation and T Cell Activation by Dendritic Cells” (Frontiers in Immunology, 2017)
